Source: US20260191818A1 (University of South Carolina, priority 2022, published 2026)

How the values were obtained:
[1] = system: C26 tumor-bearing mice; assay: C26 tumor-bearing mice given 5FU (cancer and chemotherapy-induced cachexia): body, tumor and tissue weights, food intake; format: in vivo, CD2F1 mice
Method: Male (n=20) CD2F1 (CD2F1) hybrid mice were purchased from Charles River Laboratory (Raleigh, NC) at 10 weeks of age. Mice arrived at our facilities and were given AlN76 diet and allowed to acclimate to the new facilities and purified diet for 4 weeks. Mice were kept in ventilated cages (5 per cage), on a 12:12 h light/dark cycle, in a humidity and temperature control room (~22° C.) and given ad libitum access to water and food. Animal handling and experiments were performed to minimize pain and discomfort. […] Control mice were non-tumor-bearing mice given PBS i.p. and propylene glycol p.o. as vehicle controls. Body weights were measured daily. Food weights per cage were measured daily and average food intake was calculated by the difference in food weight between days. […] Hind limb muscles and select organs were excised, weighed, and snap frozen in liquid nitrogen while mice were under sedation (2% Isoflurane, 2 L/min O2). All procedures involving animals were reviewed and approved by the Institutional Animal Care and Usage Committee (IACUC) at the University of South Carolina in accordance with the American Association for Laboratory Animal Science. C26 (colon 26 adenocarcinoma) cells were gifted from Dr. Andrea Bonetto's laboratory and grown in complete DMEM (10% fetal bovine serum, 1% penicillin/streptomycin). Cells were split at 70% confluency and passage 3 was used for cell implantation. On Day 0, CD2F1 mice were given a subcutaneous injection of 1×10^6 C26 cells in the subscapular area as previously described. See, Bonetto, A., et al., The Colon-26 Carcinoma Tumor-bearing Mouse as a Model for the Study of Cancer Cachexia. J Vis Exp, 2016(117). Tumors were palpable at Day 8 in all C26 tumor-bearing mice. […] VWR; CAS #:51-21-8) was solubilized in warmed phosphate buffered saline (PBS) at 3.0 mg/mL, sterile filtered with a 0.2 μm filter and administered at the beginning of the light cycle (0700) via i.p. injection to mice with established tumor (day 11 after C26 implantation). […] Cancer Biol Ther, 2022. 23(1): p. 1-15; and […]., et al., The Acute Effects of 5 Fluorouracil on Skeletal Muscle Resident and Infiltrating Immune Cells in Mice. […] Data were analyzed using Prism 8 statistical software (GraphPad Software, CA, USA). […] The healthy controls are shown as a reference point but were not included in statistical analysis. Additionally, the C26 alone group was not included in analysis, but is shown as a reference point for tumor growth without chemotherapy intervention. Data are presented as the mean±SEM and the level of significance was set up at p<0.05.

[2] = system: C26 model of cachexia; details: Quercetin 35 mg/kg; cited from earlier work
[3] = system: tibialis anterior (TA) muscle; assay: Muscle histology (H&E), myofibrillar cross sectional area of tibialis anterior; format: in vivo, CD2F1 mice; details: C26+5FU+Quer vs C26+5FU
Method: Skeletal muscle histology was assessed via hematoxylin and eosin (H&E) staining on tibialis anterior (TA) muscle cryosections. The TA muscle was dissected, snap-frozen in liquid nitrogen with Optimum Cutting Temperature (OCT) embedding medium placed on the most distal portion of the TA and stored in −80° C. Tissue was acclimated to the cryostat temperature (−24° C.) prior to collection of transverse sections ([…]) on Fisherbrand Superfrost Plus Microscope Slides. TA tissue slides were then stored at −80° C. until staining. Slides were fixed in ice-cold acetone and H&E staining was completed as previously described. […] Cancer Biol Ther, 2022. 23(1); and VanderVeen, B. N., et al., 5-Fluorouracil disrupts skeletal muscle immune cells and impairs skeletal muscle repair and remodeling. J Appl Physiol (1985), 2022. 133(4): p. 834-849. Images of H&E stains were taken at 20× and 40× magnification using a Keyence BZX800 microscope. Muscle cross sectional area (mCSA) was measured using ImageJ by measuring the circumference of 500-700 myofibers/mouse (n=3-5/group).

[4] = system: IL-6; assay: Plasma interleukin-6 ELISA; format: in vivo, CD2F1 mice; details: C26+5FU+Quer vs C26+5FU
Method: Blood was collected retro orbitally prior to euthanasia while the mice were anesthetized. Whole blood was collected and put in an EDTA-coated tubes and store on ice prior to centrifugation (3,000 g at 4° C. for 10 min) for plasma collection. A commercially available IL-6 (SEQ ID NO: 9) enzyme-linked immunosorbent assay (ELISA) kit was obtained from BioLegend (San Diego, CA, USA). Briefly, a Costar clear 96-well plate (Corning, NY, USA) was coated with IL-6 (SEQ ID NO: 9) capture antibody and allowed to incubate overnight. The plate was then blocked with assay diluent buffer, and IL-6 (SEQ ID NO: 9) standards and plasma samples were added to the plate. Wells were then washed and detection antibody was incubated in each well for 1 h. The wells were again washed and then incubated with avidin horseradish peroxidase reagent. After several washes, 3,3′,5,5′-tetramethylbenzidine substrate was added, and the reaction was developed for 20 min. The reaction was stopped with sulfuric acid, and absorbance was measured.

[5] = system: soleus muscle mitochondria; assay: Transmission electron microscopy of soleus muscle, mitochondrial number and size; format: in vivo, CD2F1 mice; details: C26+5FU+Quer vs C26+5FU
Method: Mitochondrial number and size were assessed in the soleus muscle using transmission electron microscopy (TEM). Skeletal muscle was prepared for TEM as previously described. See, VanderVeen, B. N., et al., 5-Fluorouracil disrupts skeletal muscle immune cells and impairs skeletal muscle repair and remodeling. J Appl Physiol (1985), 2022. 133(4): p. 834-849. The soleus was excised and initially fixed in 2.5% EM-grade glutaraldehyde followed by a secondary fixation in 1% osmium tetroxide and 1.5% K+ ferricyanide. After dehydration with increasing concentrations of ethanol, the samples were transferred to acetonitrile and embedded in Polybed 812. Ultrathin (~70 nm) sections were cut with a Leica Reichert Ultracut R ultramicrotome (Leica Microsystems GmbH, Wetzlar, Germany), collected on copper grids and stained with uranyl acetate and lead citrate. A JEOL 1400+ transmission electron microscope (JEOL USA, Peabody, MA) was used to view sections, and digital images were obtained with an Advanced Microscopy Techniques XR 81 Camera (Advanced Microscopy Techniques, Woburn, MA). Tissues were searched for intact and aligned sarcomeres by an investigator blinded to the experimental groups. […] Mitochondrial size was calculated by circling discernible mitochondria with ImageJ within the F.O.V. and averaged across the multiple images within a single mouse.

[6] = system: CD2F1 mice; details: mouse, in vivo; cited from earlier work

O=c1c(O)c(-c2ccc(O)c(O)c2)oc2cc(O)cc(O)c12 [quercetin, 3,4,5,7-pentahydroxylflavone]
greater EDL weight ([1]; C26+5FU+Quer vs C26+5FU, p=0.039): 23.7%
greater gonadal fat pad weight ([1]; C26+5FU+Quer vs C26+5FU, p=0.04): 50.0%
greater gastrocnemius weight ([1]; C26+5FU+Quer vs C26+5FU, p=0.055): 13.9%
other measured muscle weights ([1]; C26+5FU+Quer vs C26+5FU, p=0.09-0.15): did not achieve statistically significant differences
greater RF (rectus femoris) weight ([1]; C26+5FU+Quer vs C26+5FU, quercetin 50 mg/kg p.o., p=0.02): 14.4%
impact on body weight loss ([1]; mice given 5FU 30 mg/kg lean mass i.p., quercetin 50 mg/kg p.o. vs propylene glycol, daily from Day 11): no apparent impact
muscle mass loss [2]: protected against muscle mass loss
myofibrillar fiber size distribution [3]: rightward shift
increase in TA mean CSA ([3]; H&E): 32.0%
plasma IL-6 [4]: did not appear that quercetin decreased
greater number of mitochondria ([5]; soleus TEM per F.O.V., p=0.04): 89.6%
greater mitochondrial size ([5]; soleus TEM, p>0.01 as printed): 45.3%
sub-chronic toxicity [6]: no deleterious effects or toxicities
